According to PubChem BioAssay AID624395 (The Scripps Research Institute Molecular Screening Center, 2012):
Active and inactive are the calls of the source. How the calls were made is not given here.

Tested on: cell-based VP16 transactivation luciferase luminescence
Assay: VP16 transactivation luciferase reporter inhibitors, dose response, counter-screen for NR2E3 agonist project, cell-based, luminescence (AID 624395)

| SMILES | IC50 |
| --- | --- |
| COc1ccc(C[C@@H]2OC3(C=CC(=O)C=C3)O[C@H]2Cc2ccc(OC)cc2)cc1 | 0.845 µM |
| COc1cccc(N2CCN(c3nc(-c4ccccc4C)cc(=O)[nH]3)CC2)c1 | 4.57 µM |
| CCC(=O)NC(c1cccs1)c1cc([N+](=O)[O-])c2cccnc2c1O (configuration not stated) | 3.89 µM |
| CCn1c(=O)cc(SCC(=O)Nc2ccc(C)cn2)c2ccccc21 | 4.63 µM |
| Cc1ccc(-c2nc(NC(=O)CSc3nnnn3-c3ccccc3)ns2)cc1 | 12.1 µM (inactive) |
| O=c1c(Br)ccc(Br)cc1Br | 4.8 µM |
| O=C1c2ccccc2C(=O)c2[nH]c(=O)[nH]c21 | 4.74 µM |
